Experiments:
ENA-78 = assay: IL-1beta-stimulated ENA-78 production from HUVECs, cytometric immunofluorescence; type: cell-based, human; details: for stimulation of ENA-78 production by IL-1beta, times that of basal production: FIG. 15
Description: Human umbilical vein endothelial cells (HUVECs) (Clonetics Cell Systems; Cambrex Bio Science Walkersville, Inc., Walkersville, USA) were cultured as previously described. Briefly, HUVECs between passes three and four were seeded at a density of 2.5×10^4 cells per cm^2 and cultured to 80% confluence with endothelial cell growth-supplemented medium (EGM-2-endothelial cell medium-2; Cambrex Bio Science Walkersville, Inc.). Once confluent, media was changed to serum free endothelial basal media (EBM-2-endothelial cell medium-2; Cambrex Bio Science Walkersville, Inc.) for 24 hours prior to treatment, in which EBM-2 media supplemented to a 2% FBS concentration was used. Treatments consisted of atorvastatin calcium (AT; LKT Laboratories Inc., St. […] All were dissolved in molecular grade water. All final DMSO concentrations were less then 0.1%. […] In experiments investigating the impact of AT on IL-1beta-stimulated ENA-78 production, HUVECs were pre-treated with AT followed by IL-1beta stimulation two hours later. […] In a separate set of experiments, cells were cultured with IL-1beta and AT in the presence or absence of mevalonate, FPP, and GGPP to determine whether AT inhibition of ENA-78 production was dependent on HMG-CoA reductase inhibition and subsequent downstream pathways. Cell culture supernates for all experiments were stored at -20° C. until analysis, which was performed within seven days. ENA-78 concentrations were measured and normalized to total protein content in cell culture supernates using cytometric immunofluorescence as previously described. Ribonucleic acid (RNA) was isolated using a commercial kit (RNeasy mini kit, Qiagen Inc., Valencia, USA). Complementary deoxyribonucleic acid (cDNA) conversion was performed by high capacity cDNA reverse transcription (Applied Biosystems, Foster City, USA) per protocol using roughly 2 μg of total RNA. RNA quality was assessed by absorbance (Nanodrop, Nanodrop Technologies, Wilmington, USA). Real-time reverse-transcription PCR (RT-PCR) was done using primer and probe sets for CXCL5 normalized to a housekeeping gene, glyceraldehyde-3-phosphate dehydrogenase (GAPDH; Taqman Gene Expression Assays, Applied Biosystems Inc.). […] PCR for both CXCL5 and GAPDH was performed at the same time using the following conditions: 95° C. for 2 minutes; 35 cycles of 95° C. for 30 seconds, 59° C. for 30 seconds, and 72° C. for 30 seconds; followed by 7 minutes of elongation at 72° C. Statistical differences in normalized protein concentrations and gene expression levels were determined by one way ANOVA and post-hoc Tukey analysis. […] An independent t-test was used to compare treatment differences at the same time points in the dose range analysis. […] Statistical analyses were performed with SPSS software, version 11.5 (SPSS Inc., Chicago, USA).

CXCL5 = CXCL5 gene expression in HUVECs, real-time RT-PCR normalized to GAPDH; type: cell-based, human; details: IL-1beta, 24 hours, FIG. 17
Description: Human umbilical vein endothelial cells (HUVECs) (Clonetics Cell Systems; Cambrex Bio Science Walkersville, Inc., Walkersville, USA) were cultured as previously described. Briefly, HUVECs between passes three and four were seeded at a density of 2.5×10^4 cells per cm^2 and cultured to 80% confluence with endothelial cell growth-supplemented medium (EGM-2-endothelial cell medium-2; Cambrex Bio Science Walkersville, Inc.). Once confluent, media was changed to serum free endothelial basal media (EBM-2-endothelial cell medium-2; Cambrex Bio Science Walkersville, Inc.) for 24 hours prior to treatment, in which EBM-2 media supplemented to a 2% FBS concentration was used. Treatments consisted of atorvastatin calcium (AT; LKT Laboratories Inc., St. […] All were dissolved in molecular grade water. All final DMSO concentrations were less then 0.1%. […] In experiments investigating the impact of AT on IL-1beta-stimulated ENA-78 production, HUVECs were pre-treated with AT followed by IL-1beta stimulation two hours later. […] In a separate set of experiments, cells were cultured with IL-1beta and AT in the presence or absence of mevalonate, FPP, and GGPP to determine whether AT inhibition of ENA-78 production was dependent on HMG-CoA reductase inhibition and subsequent downstream pathways. Cell culture supernates for all experiments were stored at -20° C. until analysis, which was performed within seven days. ENA-78 concentrations were measured and normalized to total protein content in cell culture supernates using cytometric immunofluorescence as previously described. Ribonucleic acid (RNA) was isolated using a commercial kit (RNeasy mini kit, Qiagen Inc., Valencia, USA). […] RNA quality was assessed by absorbance (Nanodrop, Nanodrop Technologies, Wilmington, USA). […] Statistical differences in normalized protein concentrations and gene expression levels were determined by one way ANOVA and post-hoc Tukey analysis. […]

Row | Substance | stimulation of ENA-78 production by IL-1beta, times that of basal production (ENA-78; 4 hours) [times] | stimulation of ENA-78 production by IL-1beta, times that of basal production (ENA-78; 12 hours) [times] | stimulation of ENA-78 production by IL-1beta, times that of basal production (ENA-78; 24 hours) [times] | stimulation of ENA-78 production by IL-1beta, times that of basal production (ENA-78; 48 hours) [times] | IL-1beta stimulated ENA-78 production relative to constitutive concentrations (ENA-78; IL-1beta 2 ng/ml, FIG. 14) [fold] | IL-1beta stimulated ENA-78 production (ENA-78; IL-1beta 2 ng/ml, no AT (constitutive 69±11 pg/mg), FIG. 14) [pg/mg] | IL-1beta-stimulated ENA-78 production (ENA-78; IL-1beta alone, mevalonate experiment, FIG. 16) [pg/mg] | CXCL5 expression in HUVECs (CXCL5) | effect of co-treatment on the effect of AT on IL-1beta-stimulated ENA-78 production (ENA-78; IL-1beta and AT 10 uM, mevalonate 250 μM, FPP 5 μM, GGPP 5 μM, FIG. 16)
1 | interleukin-1beta [IL-1beta] | 29 | 282 | 892 | 1322 | ~60 | 4075 ± 360 | 3181 ± 590 | highly induced | –
2 | geranylgeranyl pyrophosphate [GGPP] | – | – | – | – | – | – | – | – | partially reversed

From patent US20080045582A1, “ENA-78 Gene Polymorphisms and Protein Concentrations as Diagnostic and Prognostic Tools” (priority 2006, published 2008)
